# Results: patent US9034863B2, “Compositions and methods for inhibiting entry of a hepatic virus” (The Board of Trustees of the University of Illinois, priority 2008, dated 2015)
# Assays:
# Format in all cases: cell-based, Hepatitis C virus (HCV)
# [1] = tested on: HCV genotype 2a subgenomic replicon; assay: HCV sg2a replicon RNA replication in Huh7 cells, RT-qPCR; settings: 72 hours post-treatment
# Excerpt: Huh7 cells, also known as Huh7/scr cells, are well-known in the art (Zhong, et al. (2005) Proc. Natl. Acad. Sci. USA 102, 9294-99; Gastaminza, et al. (2006) J. Virol. 80:11074-81; Zhong, et al. (2006) J. Virol. 80:11082-93; Sainz et al. (2009) PLoS ONE 4:e6561). […] The HCV sg2a replicon was established as previously described (Uprichard, et al. (2006) Virol. J. 3:89). Briefly the HCV genotype 2a subgenomic replicon RNA (psgJFH1; Kato, et al. (2003) Gastroenterology 125:1808-17) was XbaI linearized, in vitro transcribed using […] T7 (Ambion, Austin, Tex.) and transfected into cells using a modified electroporation protocol (Krieger, et al. (2001) J. Virol. 75(10):4614-24). All cells were cultured in complete Dulbecco's modified Eagle's medium (cDMEM) (Hyclone, Logan, Utah) supplemented with 10% fetal bovine serum (FBS) (Hyclone), 100 units/ml penicillin, […] streptomycin, and 2 mM L-glutamine (Gibco Invitrogen, Carlsbad, Calif.) and 500 μg/ml geneticin ((Invitrogen) for HCV replicon cells only).
# (§1) Total cellular RNA was purified using an ABI PRISM™ 6100 Nucleic Acid PrepStation (Applied Biosystems), as per the manufacturer's instructions. […] HCV JFH-1 and human GAPDH RNA transcript levels were determined relative to a standard curve derived from serial dilutions of plasmid containing the JFH-1 HCV cDNA or the human GAPDH coding sequence, respectively. […]
# [2] = tested on: HCV genotype 1b subgenomic replicon; assay: HCV sg1b replicon RNA replication in Huh7 cells, RT-qPCR; settings: 72 hours post-treatment
# HCVcc = assay: HCV foci reduction assay, acute HCVcc infection of Huh7 cells; settings: added pre-, co- or post-infection
# HCV-JFH-1 = assay: Chronic HCV-JFH-1 infection of Huh7-1 cells, inhibitor combinations, RT-qPCR 24-96 h (FIG. 3-5); settings: for reduction of HCV levels (FIG. 3): PI 200 nM; for reduction of HCV levels (FIG. 3) / decrease in intracellular HCV load (FIG. 4B): IFN-α 100 U/ml; for decrease in intracellular HCV load (FIG. 4B): ferristatin 50 μM
# Experimental: RT-qPCR analysis of intracellular HCV RNA levels in Huh7 cultures mock-treated, treated with ezetimibe (30 μM), PI (200 nM), IFN-α (100 U/ml), or indicated combinations thereof (n=3). Data presented are representative of multiple independent experiments.
# FIG. 4A, Chronically infected Huh7-1 cell cultures (n=3) treated with ezetimibe (E), naringenin (N), interferon α (I), or combinations thereof, were harvested at 24, 48, 72 or 96 hours post-treatment, intracellular HCV levels were quantified by RT-qPCR, and are presented as HCV copies/μg RNA. FIG. 4B, Chronically infected Huh7-1 cell cultures (n=3) treated with ezetimibe (E), ferristatin (T), interferon α (I), or combinations thereof, were harvested at 24, 48, 72 or 96 hours post-treatment, intracellular HCV levels were quantified by RT-qPCR, and are presented as HCV copies/μg RNA.
# Shown are the results of RT-qPCR analysis of intracellular HCV RNA levels in Huh7 cultures mock-treated, treated with ezetimibe (30 μM), polymerase inhibitor, RG7128 (1 μM), or a combination thereof (n=3).
# For experiments analyzing the activity of ezetimibe in combination with a protease inhibitor, Huh7-1 cells were infected with HCV-JFH-1 and allowed to reach steady state levels of infection. The HCV-infected cells were seeded in a 96-well plate and treated with the following: medium alone, 30 μM ezetimibe, 200 nM ITMN5537, 100 μ/ml IFN-α, and combinations of the above drugs at the specified concentrations. Medium and drugs were replaced every 24 hours. Triplicate wells were harvested at 24, 48, 72 or 96 hours post-treatment, in 200 μl/well of 1×ABI lysis buffer and stored at −80° C. until RNA extraction.
# Therefore, the therapeutic potential of an IFN-free antiviral cocktail was also investigated, using ezetimibe in combination with other direct acting inhibitors of HCV amplification, specifically an inhibitor of the HCV NS3/4A protease (ITMN 5537; Intermune, Brisbane, Calif.). Huh7-1 cells were infected with HCV-JFH-1 and allowed to reach steady state levels of infection. Cells were monotreated with protease inhibitor (PI) or ezetimibe or IFN alone or treated with combinations of PI+ezetimibe or PI+IFN or IFN+ezetimibe or a combination of all three inhibitors. Samples were harvested at 24, 48, 72 or 96 hours post-treatment, the intracellular RNA was extracted and RT-qPCR performed to quantify HCV copies.
# Thus, parallel cultures of chronically infected Huh7-1 cells were established and subsequently treated with ezetimibe, naringenin or IFN-α, either alone or in combination. Treatments were replenished every 24 hours. Triplicate cultures of each treatment condition were harvested at 24, 48, 72 or 96 hours post-treatment and intracellular HCV levels were quantified by RT-qPCR (FIG. 4A). […] Thus, no evidence of synergy was observed when IFN-α was combined with an egress inhibitor that only blocks cell-free spread.
# As an alternative method of determining the therapeutic importance of inhibiting HCV cell-to-cell spread, an inhibitor to TfR1 was used. TfR1 has also been identified as another host cell factor that is involved in cell-free entry of HCV into cells, but is not required for cell-to-cell-mediated HCV entry. Thus, unlike ezetimibe which inhibits both cell-free and cell-to-cell HCV spread, the TfR1 inhibitor, ferristatin, only blocks cell-free virus spread. Again, chronically infected Huh7-1 cell cultures were established and treated with ezetimibe (30 μM), ferristatin (50 μM), or IFN-α (100 U/ml), either alone or in combination and treatments were replenished every 24 hours. Intracellular HCV copies were quantified from triplicate cultures by RT-qPCR at 24, 48, 72 or 96 hours post-treatment (FIG. 4B).
# Huh7-1 cells were infected with HCV-JFH-1 and allowed to reach steady state levels of infection. Cells were monotreated with HCV polymerase inhibitor RG7128 (1 μM) or ezetimibe (30 μM) alone or treated with a combination of RG7128 and ezetimibe. […]
# HCVcc JFH-1 = assay: Chronic HCVcc infection in growing Huh7 cells, long-term treatment, RT-qPCR (FIG. 2)
# Experimental: Cultures of growing Huh7 cells were inoculated with HCVcc JFH-1 at an MOT of 0.01 FFU/cell. Infected cultures were maintained for an additional 10 days to allow HCV RNA to reach steady-state levels. FIG. 2A, Cultures were mock treated, treated with ezetimibe alone (30 μM), IFN-α (100 U/ml) alone, or ezetimibe (30 μM) plus IFN-α (100 U/ml) in combination. Treatments were maintained as cultures were passaged. FIG. 2B, After 70 days IFN-α or combination ezetimibe plus IFN-α treatment, treatment was either continued (open shapes) or discontinued (filled shapes). […] Results are graphed as means±s.e.m. for triplicate samples. The data presented are representative of two independent experiments.
# For experiments in growing cells, Huh7 cells seeded at 1×10^6 cells in a T75 cell culture flask (Corning) were infected with JFH-1 HCVcc at a MOI of 0.01 FFU/cell and subsequently cultured for 10 days to allow HCV RNA to reach steady-state levels. On day 10 post-infection, cells were split 1:4 and re-plated into T25 culture flasks (Corning). Twenty four hours post seeding, individual flasks were mock-treated with cDMEM or treated with cDMEM containing IFN-α (100 U/ml), ezetimibe (30 μM) or a combination of both IFN-α (100 U/ml) and ezetimibe (30 μM). Throughout the course of the experiment, fresh media with treatments was replenished every two days and cells were trypsinized just before reaching confluence and re-plated at a dilution of 1:3 to maintain active cell growth. […]
# as §1
# To confirm HCV clearance, drug treatments were subsequently discontinued on day 70 and HCV RNA levels were monitored for an additional 30 days.
compound,measurement,setting,value
CC[C@H](C)C(=O)O[C@H]1C[C@@H](C)C=C2C=C[C@H](C)[C@H](CC[C@@H]3C[C@@H](O)CC(=O)O3)[C@H]21 [Lovastatin],sg2a HCV RNA levels,[1],had no affect
same,reduction of sg1b RNA levels,[2],22 fold
same,inhibition of HCVcc foci formation,HCVcc,had no affect
CC(C)(C)OC(=O)N[C@H]1CCCCC/C=C\[C@@H]2C[C@@]2(C(=O)NS(=O)(=O)C2(C)CC2)NC(=O)[C@@H]2C[C@@H](OC(=O)N3Cc4cccc(F)c4C3)CN2C1=O [PI],reduction of HCV levels (FIG. 3),HCV-JFH-1; ezetimibe 30 μM,less than a log
CC(C)C(=O)OC[C@H]1O[C@@H](n2ccc(N)nc2=O)[C@](C)(F)[C@@H]1OC(=O)C(C)C [RG7128],reduction of HCV levels (FIG. 5),"HCV-JFH-1; RG7128 1 μM, ezetimibe 30 μM, normalized to Mock",less than a log
Cc1[n-]n(-c2ccc(S(=O)(=O)O)cc2)c(=O)c1N=Nc1ccc(-c2ccc(N=Nc3ccc4c(S(=O)(=O)O)cc(S(=O)(=O)O)c(N)c4c3[O-])c([O-])c2)cc1[O-].[Cu+2].[Cu+2] [ferristatin],decrease in intracellular HCV load (FIG. 4B),HCV-JFH-1; ezetimibe 30 μM,neither ezetimibe nor ferristatin alone reduced intracellular HCV load
IFN-α,reduction of HCV levels (FIG. 3),HCV-JFH-1; ezetimibe 30 μM,a log
same,decrease in intracellular HCV load (FIG. 4B),HCV-JFH-1; ezetimibe 30 μM,a log decrease
same,reduction of HCV copies (FIG. 4A),"HCV-JFH-1; ezetimibe, naringenin, IFN-α alone or in combination",a log decrease
same,decrease in intracellular HCV RNA levels,"HCVcc JFH-1; by day 32 post-treatment vs mock, IFN-α 100 U/ml, ezetimibe 30 μM",~2 logs
same,rebound in HCV RNA after treatment discontinued,"HCVcc JFH-1; discontinued on day 70, monitored 30 days",immediate rebound
